Calls of active or inactive are those of the source. No cut-off for these calls is given here.

The subject of experiment [1] is Ascobolus. Put plainly: Antifungal activity against Ascobolus furfuraceus NRRL 6460 assessed as reduction in radical growth rate at 200 ug/disk by centerpoint inoculation disk assay. The format is functional. On the set-up: scale not given: the % may be the effect or the level left.
Experiment [2] deals with Candida albicans. Put plainly: Antifungal activity against Candida albicans ATCC 10453 at 200 ug/disk by standard disk assay. Type of experiment: functional, organism-based.
Experiment [3] relates to Bacillus subtilis. Put plainly: Antibacterial activity against Bacillus subtilis ATCC 6051 at 100 ug/disk by standard disk assay. Type of experiment: functional. The note with it: read-out: IZ.

Take `O=C1C[C@@H](O)[C@]23Oc4ccc(O)c5c4[C@](Oc4cccc1c42)(O3)[C@@H]1O[C@@H]1[C@H]5O`: the Activity in experiment [1] is reported as 40%. For the same molecule, the result in experiment [2] was inactive. Consider `CC(CCOc1ccc(C(=O)O)cc1)C(=O)O` (configuration not stated) [SPOROVEXIN A], for which, in experiment [3], the zone of inhibition at 100 µg/disc is 9 mm. Besides, the Activity in experiment [1] was determined as 90%. Also, the outcome in experiment [2] was inactive. As to `CC(C(=O)O)C(O)COc1ccc(C(=O)O)cc1` (configuration not stated), in experiment [2], the outcome was inactive.

In the case of `CC(CCOc1ccc(C(=O)NCCC(=O)O)cc1)C(=O)O` (configuration not stated), the outcome in experiment [2] was inactive.

Source of the values: ChEMBL document CHEMBL1141836, “Sporovexins A-C and a new preussomerin analog: antibacterial and antifungal metabolites from the coprophilous fungus Sporormiella vexans” (1999).
